Results published in patent publication US20240240226A1, “FLUOROGENIC ASSAY FOR RAPID SCREENING OF BACTERIAL BETA-LACTAMASE ACTIVITY” (The Board of Trustees of the Leland Stanford Junior …, priority 2021, published 2024).

Tests used:
[1] = test system: E. coli/TEM-1; assay: CDA detection of live E. coli expressing TEM-1 Bla; type: cell-based
Experimental: FIG. 3 illustrates the characterization of CDA with HRP, H2O2, E. coli expressing TEM-1 Bla (E. coli/TEM-1) and IMP-1 carbapenemase (E. coli/IMP-1), and K. pneumoniae expressing KPC carbapenemase (K. pneumoniae/KPC). a) Fluorescence enhancement of CDA incubated with different concentrations of E. coli expressing TEM-1 Bla. b) Fluorescence enhancement of CDA; HRP (1 unit/mL), H2O2 (1 μM), and either viable E. coli expressing TEM-1 Bla or bacterial lysate extracted from equal c.f.u. per milliliter. c) Fluorescence enhancement of CDA incubated with different concentrations of E. coli expressing TEM-1 Bla (H2O2, 1 mM). d) Fluorescent intensity of E. coli and E. coli/TEM-1 preincubated with CDA for 20 hours upon addition of H2O2 (500 μM) for 5 min. Error bars represent ±SD, n=3. * p<0.0332; **p<0.0021, ****p<0.0001, ns: not significant. e) Fluorescence enhancement of CDA incubated with different concentrations of E. coli expressing IMP-1 carbapenemase in the presence of H2O2 (1 mM). f) Fluorescence enhancement of CDA incubated with different concentrations of K. pneumoniae expressing KPC carbapenemase (H2O2, 1 mM). […] Data were collected on a Tecan Safire microplate reader with excitation at 570 nm and emission at 600 nm. […]
It was studied if CDA could report β-lactamase activity in live E. coli and Klebsiella pneumoniae (K. pneumoniae) which are commonly found in many infections. Three transformed E. coli strains expressing the most clinically prevalent β-lactamases including TEM-1 Bla (E. coli/TEM-1) and two carbapenemases were evaluated: a metallo-β-lactamase IMP-1 (E. coli/IMP-1) and a unique class A β-lactamase KPC-3 (E. coli/KPC-3) that hydrolyze carbapenem antibiotics. […]
To address the question of whether a higher concentration of H2O2 would equilibrate across membranes of viable bacteria and accelerate the oxidation of processed CDA, a serial dilution of H2O2 (100 μM, 500 μM, 1 mM, 2 mM) was incubated with CDA and different concentrations of E. coli and E. coli/TEM-1 for a longitudinal reading (FIGS. 3c, 21b, and 22). […]

[2] = test system: esterase; assay: Response of CDA to H2O2 with esterases alone; type: biochemical
[3] = test system: β-lactamases (TEM-1 Bla, AmpC, BlaC, IMP-1, OXA-48, KPC-3); assay: Detection of recombinant β-lactamases by CDA with esterase and H2O2; type: biochemical; details: all β-lactamases; esterase 1 μg/mL, H2O2 1 mM, 2 hours, room temperature; 3x SD of negative controls
[4] = test system: E. coli/KPC-3; assay: CDA/H2O2 detection of live E. coli expressing KPC-3 carbapenemase; type: cell-based; details: CDA 10 μM, H2O2 1 mM, room temperature
Experimental: FIG. 23 illustrates the fluorescence enhancement of CDA incubated with different concentrations of E. coli expressing KPC-3 carbapenemase in PBS at room temperature; CDA, 10 μM, and H2O2, 1 mM. The signal of CDA in H2O2 was subtracted and the absolute values were plotted. Data were collected on a Tecan Safire microplate reader with excitation at 570 nm and emission at 600 nm. A.U. indicates arbitrary units.
Factoring the 100 μL assay volume, as low as 100 bacteria in one 96 well were detectable with the assay. A concentration of H2O2 at 1-2 mM efficiently oxidized the processed CDA to resorufin inside E. coli. Next, the assay was used to detect E. coli/IMP-1 and E. coli/KPC-3 (FIGS. 3e and 23). E. coli/IMP-1 was detected at […] within 2 hours, and E. coli/KPC-3 could be reliably detected at around 10^5-10^6 c.f.u./mL.
Bacteria growth and assay: E. coli (BL21 or TOP10) transformed to express TEM-1 Bla, IMP-1, and KPC3 were grown in LB medium and induced with 0.2% arabinose for 6-8 h at 30° C., 205 rpm. Colony forming units per milliliter (c.f.u./mL) were determined by measuring the UV absorbance at OD600.
For CDA incubation, 10 μM working solution was prepared freshly by diluting stock solution (1 mM in pure DMSO) in PBS (pH 7.05). A light-safe tube or foil wrap was used to prevent photobleaching.

[5] = biological target: T1, TEM-1 Bla (Escherichia coli, UniProt P62593); assay: CDA fluorescence turn-on with recombinant TEM-1 Bla, esterase and H2O2; type: biochemical
T1 construct: TEV(Cys) (TEV site / Cys element as named in the plasmid); made in house; host or cells: E. coli (BL21 or TOP10)
T1 sequence (P62593 24-286 limits assumed): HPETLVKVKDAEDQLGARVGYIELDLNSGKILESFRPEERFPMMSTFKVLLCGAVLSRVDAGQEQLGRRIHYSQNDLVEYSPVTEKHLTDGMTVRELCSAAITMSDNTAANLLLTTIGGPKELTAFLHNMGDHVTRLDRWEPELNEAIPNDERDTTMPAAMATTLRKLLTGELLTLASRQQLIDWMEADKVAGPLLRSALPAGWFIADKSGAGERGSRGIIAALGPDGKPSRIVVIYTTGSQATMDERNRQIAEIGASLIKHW

`CC(=O)Oc1ccc2c(c1)Oc1cc(OC(C)=O)ccc1N2C(=O)OCc1ccc(SCC2=C(C(=O)O)N3C(=O)[C@@H](NC(=O)Cc4ccccc4)[C@H]3SC2)cc1` [CDA, 3-(((4-(((3,7-diacetoxy-10H-phenoxazine-10-carbonyl)oxy)methyl)phenyl)thio)methyl)-8-oxo-7-(2-phenylacetamido)-5-thia-1-azabicyclo[4.2.0]oct-2-ene-2-carboxylic acid] was tested, and the “effect of adding HRP and H2O2 on fluorescence with viable bacteria” value ([1]; HRP 1 unit/mL, H2O2 1 μM, bacteria not lysed) was “contributed little to the fluorescence increase”, the “number of bacteria detectable in one 96 well” value ([1]; factoring the 100 μL assay volume) was 100 bacteria and the bacteria concentration detectable ([1]; noninduced E. coli/TEM-1, H2O2 1 mM, within 2-3 hours) was 10^6-10^7 c.f.u./mL. For the same compound, the “change of the response of CDA to H2O2” value [2] was “barely changed”, the “limit of detection of β-lactamases” value [3] was 1 femtomole and the “bacteria concentration reliably detected” value [4] was 10^5-10^6 c.f.u./mL. For the same compound, the “minimum CDA concentration required for reporting β-lactamase/esterase activity” value ([5]; esterase 1 μg/mL, TEM-1 Bla 100 nM, H2O2 1 mM) was 100 nM and the “fluorescence with TEM-1 Bla and esterase without H2O2” value ([5]; no H2O2, oxidation by dissolved oxygen) was “displayed fluorescence turn-on”.
